Laboratory results from patent publication US20210062263A1, “A CLINICAL […]” (priority 2016, published 2021).

Key:
Type in all cases: in vivo, mice
dorsal skin wound [1] = assay: Macroscopic evaluation of dorsal skin wounds
Protocol: (§1) Implants were prepared by cutting medical grade Silastic (polydimethylsiloxane) tubing (1.5 mm inner diameter, 2.3 mm outer diameter, Aunet Pty Ltd, WA, Australia) to the desired length (1 cm long) and sealing one end with Multi-Purpose Sealant (Dow Corning RTV Sealant). After 24 hours each tube was packed with either crystalline testosterone (Sigma #T-1500) or left empty (vehicle implant). The open end was then sealed and implants were allowed to dry for at least 24 hours prior to surgical implantation. The implant size was considered to be the length of tubing containing testosterone. Prior to subcutaneous insertion, implants were sterilized in absolute ethanol for 10 minutes which also removed any androgen adhering to its external surface. Each testosterone or vehicle implant was inserted subcutaneously via a 5-mm nape incision in intact and castrated male mice three weeks before the wound healing experiments and the incision site was closed with 5/0 sutures.
Under anesthesia, the dorsal flanks of each 9 weeks old mouse (n=6/group) were carefully shaved and cleansed with 70% v/v ethanol. To create wounds, full-thickness, parasagittal linear incisions (1 cm long) were made through the skin and underlying the panniculus carnosus muscle on each flank and each wound was closed using two 5/0 silk sutures placed 3 mm from each end of the wound. […] Incisions were examined and assessed on days 3, 5, 7 and post-wounding.
Digital images of each dorsal skin wound were obtained with a standardized focal distance, aperture and exposure time using a Nikon D5000 camera (Nikon, Tokyo, Japan) immediately after the initial incision and at 3, 5, 7 and 14 days post-wounding. Wound areas were measured within the wound margins and the pixel areas were calculated using Adobe Photoshop CS5 (version 12.0, Adobe Systems Inc). The area of erythema was measured in all groups at 3 days and 5 days post-wounding and the area of the wound was measured in all groups at all time-points.

CD45+ cells = assay: Immunohistochemical analysis of leukocyte infiltration (CD45+ cells)
Text: CD45, also known as leukocyte common antigen (LCA), was used to detect infiltrating leukocytes as a marker of inflammation (Hermiston et al. (2003) Annul Rev Immunol 21:107-137). Five micron thick sections were cut and placed on Menzel-Glaser Polysine (Registered Trade Mark) slides (Thermo Scientific), air-dried and stored at room temperature. Slides were stained using an automated system (DAKO Autostainer Plus), at room temperature; sections were rehydrated and antigen retrieved with the Dako buffers citrate pH6.1. Slides were peroxidase-blocked in 3% v/v hydrogen peroxide (H2O2) in methanol for 10 mins. They were then blocked with CAS-Block (Invitrogen, CA, USA) for 10 minutes, and then incubated with primary antibody (CD45 biotinylated rat anti-mouse antibody, 1:200) for 20 min. Vectastain ABC kit (Vector Labs, Burlingame, Calif.) was subsequently applied for 30 minutes and further colorimetric detection was completed with diaminobenzidine (DAB) for 5 minutes. Sections were counterstained with haematoxylin and slides coverslipped under DePeX.
Leukocyte infiltration was assessed by calculating the average number of CD45+ cells in four random high-power fields (HPF) per tissue section from each group. Data presented reflect the mean total cell count per field from the wound area at days 3 and 5 post-wounding.

follistatin = assay: Cutaneous follistatin levels (RIA) after wounding
Text: (§2) Under anesthesia, the dorsal flanks of each 9 weeks old mouse (n=6/group) were carefully shaved and cleansed with 70% v/v ethanol. To create wounds, full-thickness, parasagittal linear incisions (1 cm long) were made through the skin and underlying the panniculus carnosus muscle on each flank and each wound was closed using two 5/0 silk sutures placed 3 mm from each end of the wound. Post operatively, all animals received analgesia to minimize pain, were allowed to recover on a heated pad and then housed in groups of four animals per cage. Incisions were examined and assessed on days 3, 5, 7 and post-wounding.
Following exsanguination, anesthetized animals were killed by cervical dislocation. Full-thickness specimens of the skin wound, consisting of the entire wound scar surrounded by a border of about 3-mm, were excized and bisected. Half of each sample was frozen at −80° C. and the other half was fixed in 4% v/v paraformaldehyde (Sigma-Aldrich, NSW, Australia) and processed for histology. Unwounded skin was obtained from the dorsum of the trunk near the tail of each animal to determine protein levels. […]
Serum and skin follistatin levels were measured by RIA using human recombinant follistatin 288 as standard and as tracer following labeling with I^125 (O'Conner et al. (1999) Hum Reprod 14(3):827-832). […]

dorsal skin wound [2] = assay: Histopathological measurements of skin wounds
Protocol: as §1, §2
Following exsanguination, anesthetized animals were killed by cervical dislocation. Full-thickness specimens of the skin wound, consisting of the entire wound scar surrounded by a border of about 3-mm, were excized and bisected. Half of each sample was frozen at −80° C. and the other half was fixed in 4% v/v paraformaldehyde (Sigma-Aldrich, NSW, Australia) and processed for histology. Unwounded skin was obtained from the dorsum of the trunk near the tail of each animal to determine protein levels.
Transverse histological sections (5 μm) of skin from the center of each wound were stained with hematoxylin and eosin (H&E) [Harris' Hematoxylin, 1% v/v Eosin, Amber Scientific, Midvale, Wash., Australia] and analyzed by light microscopy. All histological analyses were performed blind without knowledge of the identity of each specimen. Histological sections were scanned for assessment using Aperio ScanScope AT Turbo Scanner (Aperio, CA, USA) and the electronic slides (eSlides) were visualized and analyzed using Aperio ImageScope.
Wound width was calculated by measuring the distance between the unwounded dermis margins at the epidermis-dermis junction (Gilliver et al. (2008) endocrinology 149(11):5747-5757). When the width was <0.2 mm, the wound was considered closed. Reepithelialization was assessed using the following scoring method: 0, absent; 1, present, covering <50% of the wound; 2, present, covering >50% and <100% of the wound; 3, present, covering 100% with irregular thickness; 4, present, covering 100% with regular thickness (Steed et al. (1997) 77(3):575-586). To determine epidermal hyperplasia, the mean distance between the stratum granulosum and the epidermal-dermal junction of each wound site was calculated (10 measurements per section, using a 10× objective). Unwounded skin was used as control.
Sections from day 7 and day 14 wounds were also stained with Masson's trichrome to highlight connective tissue. The area of granulation tissue was measured by defining the area located between the basal surface of the epidermis and the panniculus carnosus below. Collagen orientation was assessed using the following scoring method: 1, basket-weave fibers; 2, basket-weave >parallel fibers; 3, parallel fibers >basket-weave fibers; 4, parallel fibers (Ashcroft and Mills (2002) J Clin Invest 110(5):615-624).

[3] = Reproductive organ weights (seminal vesicle, epididymis); conditions: castrated males, testosterone replacement
Text: Six week-old male mice were castrated under anesthesia three weeks prior to the studies on wound healing. The testes were gently pushed through the inguinal canal into the abdominal cavity and exposed through a small (0.5 cm) ventral midline abdominal incision. Each testis was gently dissected from its epididymis and removed after ligation of the testicular vasculature. All incisions were closed using two interrupted 5/0 silk sutures (Johnson & Johnson Medical, NSW, Australia).
as §1, with “Each testosterone or vehicle implant was inserted subcutaneously via a 5-mm nape incision in intact and castrated male mice three weeks before the wound healing experiments and the incision site was closed with 5/0 sutures.” left out

C[C@]12CC[C@H]3[C@@H](CCC4=CC(=O)CC[C@@]43C)[C@@H]1CC[C@@H]2O [testosterone]
wound area (dorsal skin wound [1]; castrated animals treated with testosterone vs vehicle, days 3 and 5 post-wounding): increased wound area | scabs on wound surface (dorsal skin wound [1]; castrated males, testosterone replaced): scabs were observed at both days 3 and 5 | area of erythema (dorsal skin wound [1]; castrated+T males, day 3 post-wounding): 0.42±0.03 cm2 | number of CD45+ cells (CD45+ cells; castrated group with testosterone replaced vs castrated group, days 3 and 5 post-wounding): significantly increased | leukocyte migration and infiltration to the wound site (summary) (CD45+ cells; male mice): increased migration and infiltration of leukocytes | follistatin levels in skin (follistatin; castrated testosterone replacement group vs vehicle group, day 3 post-wounding): significantly higher | follistatin levels in skin (follistatin; intact males given testosterone vs intact males that received vehicle): significantly lower | collagen fiber orientation (dorsal skin wound [2]; castrated males treated with testosterone, day 14 post-wounding): predominant parallel orientation | wound width (dorsal skin wound [2]; castrated males, testosterone replacement vs castrated group, days 3 and 5 post-wounding): significantly increased wound widths | re-epithelialization (dorsal skin wound [2]; castrated+T group, day 5 post-wounding): re-epithelialization was complete | epidermal thickness (dorsal skin wound [2]; castrated+T group, days 3, 5 and 7 post-wounding): increased thickness of the epidermis | wound width (dorsal skin wound [2]; intact males treated with testosterone vs intact group, day 3 post-wounding): decreased wound width | wound closure (summary) (dorsal skin wound [2]; male mice): delayed wound closure | size and weight of the epididymis [3]: 0.05±0.02 | size and weight of the seminal vesicle [3]: 0.42±0.02
